Results: US7820624B2, “Peptide ligands” (ICH Productions Limited, priority 2003, dated 2010)

Legend:
[1] = test system: human monocyte-derived immature dendritic cells; assay: Titration of phage clone binding to human dendritic cells; details: 2×10^11 phage on 5×10^4 cells, 1 hour on ice
Description: Phage were recovered and titred from each round of selection as follows. 2×10^11 Blocked phage were added to 5×10^4 blocked monocyte-derived immature dendritic cells for 1 hour on ice before washing cells three times with 0.05% Tween20-PBS, eluting phage with TBS pH5.5, and lysing cells to harvest the phage remaining bound. The numbers of phage harvested by cell lysis were calculated as plaque forming units (pfu). […] Sequencing of the bound phage shown in FIG. 1 identified the peptides as APSNSTA [SEQ. ID. NO.:15], QLLTGAS [SEQ. ID. NO.:30], TARDYRL [SEQ. ID. NO.:31], FQSQYQK [SEQ. ID. NO.:26], PLMPSLS [SEQ. ID. NO.:24], FPRAPHH [SEQ. ID. NO.:32], MASISMK [SEQ. ID. NO.:27], DWWHTSA [SEQ. ID. NO.:28], SHVKLNS [SEQ. ID. NO.:29], and SPALKTV [SEQ. ID. NO.:16].
(§1) The dendritic cells were spun down at 2000 rpm, for 5 min at 4° C., and resuspended in the phage solution, allowing the phage to bind for 1 hour on ice with occasional mixing. The cells were then washed in PBS-Tween 20 (0.05%) three times before eluting phage with 166 μl TBS pH5.5. for 10 min on ice. The eluate was neutralised with […] Tris-HCl pH 8, the cells were spun down, and the supernatant removed to be stored as eluate. The cell pellet was resuspended in 200 μl of cell lysis buffer (30 mM Tris-HCl, 1 mM EDTA pH 8.0) for 1 hour on ice, with shaking. The cell debris was removed by spinning at 5000 rpm for 5 min and the supernatant recovered. The phage in the eluate and the cell lysate were titred by measuring plaque forming units (pfu) in E. coli ER2738 as described in the NEB C7C technical bulletin.
(§2) The titration of phage clone binding was carried out using human and mouse dendritic cells, with binding to plastic as a control. The human cells were obtained from donors as stated below.

mouse dendritic cells = assay: Titration of phage clone binding to mouse dendritic cells; details: 2×10^11 phage
Description: as §1, §2

[2] = test system: human peripheral blood monocytes; assay: LID transfection of monocytes, EGFP by FACS and cell death; type: cell-based; details: for Percentages of cells transfected (ranking): FIG. 7a
Description: Lipopolyplex (LID) transfection complexes comprising lipid (L), peptide (in the form of a peptide derivative as described above) (I) and DNA (D) were prepared. The lipid component was Lipofectin or Lipofectamine 2000 (Invitrogen Ltd, Paisley, UK), the peptide component was a synthesized peptide A to F, 6 or 6J derivative, as described in Table 7 above, and the DNA was the plasmid pEGFP-N1 (Clontech, BD Biosciences, Palo Alto, Calif.)
component (Lipofectin or Lipofectamine 2000) was maintained at a constant proportion, by weight, relative to DNA of 0.75:1. Prior to making transfection complexes, in method A the lipid component was diluted to a concentration of 15 μg per ml, the peptide was prepared at 0.1 mg/ml and the DNA (plasmid pEGFP-N1, BD Biosciences, Cowley, UK, prepared using EndoFree plasmid kit, Qiagen Ltd, Crawley, UK) was at 10 μg per ml. All dilutions were performed with OptiMEM reduced serum tissue culture medium (Life Technologies Ltd, Paisley, UK). In method B prior to making transfection complexes the lipid component was diluted to a concentration of 30 μg per ml, the peptide was prepared at 0.1 mg/ml and the DNA (plasmid pEGFP-N1, BD Biosciences, Cowley, UK, prepared using EndoFree plasmid kit, Qiagen Ltd, Crawley, UK) was at […]. All dilutions were performed in serum-free RPMI.
Transfection complexes were made by mixing the components in the order 1) lipid (50 μl) then 2) peptide (70 μl) and finally 3) DNA (50 μl), then diluting with OptiMEM or serum free RPMI, as appropriate, to a concentration relative to the DNA component of 2 μg DNA per […] (OptiMEM) or 500 μl (RPMI).
For transfection of monocytes, peripheral blood monocytes were prepared using Lymphoprep centrifugation and CD14 bead selection as described in the method for preparation of monocyte derived dendritic cells in Example 1(v) above. These cells were then transfected as described as described for dendritic cells except that transfection of the monocytes (and also of day 3 or day 4 immature dendritic cells) was carried out in solution.

[3] = Titration of phage clone binding to blocked plastic (control)
Description: as §1, §2

N2a (Neuro2A) cells = assay: LID transfection, luciferase reporter assay, N2a; type: cell-based, mouse; details: LID with lipofectin
Description: (§3) Transfection complexes comprising lipid, peptide and DNA were prepared. The lipid component was lipofectin (Invitrogen Ltd, Paisley, UK), the peptide component was a peptide A to F, 6 or 6J derivative, as described above, and the DNA was the plasmid pCILuc (Promega UK Ltd, Southampton). In the transfection complex, peptide to DNA charge ratios (+/−) were used at 3:1, 5:1 and 7:1. The lipid component was maintained at a constant proportion, by weight, relative to DNA of 0.75:1. Prior to making transfection complexes the lipid component was diluted to a concentration of 15 μg or 30 μg per ml, the peptide was prepared at 0.1 mg/ml and the DNA was at 40 μg per ml. All dilutions were performed with OptiMEM reduced serum tissue culture medium (Life Technologies). Transfection complexes were made by mixing of components in the order 1) lipid then 2) peptide and finally 3) DNA, then diluted with OptiMEM to a concentration relative to the DNA component of 0.25 μg DNA per […]
(§4) For transfection of these types of cell i.e. HMEC, HAEo-, N2a and HepG2, 1×10^4 cells were seeded overnight in 96 well plate. 200 μl of the suspension of the transfection complex prepared according to (b) above was added to each well. The suspension was applied to cells within 5 minutes of preparation. […]

HAEo- cells = assay: LID transfection, luciferase reporter assay, HAEo-; type: cell-based, human; details: LID with lipofectin
Description: as §3, §4

Substance	Phage harvested by cell lysis (pfu), human donor S [1] [pfu ×10^3]	Phage harvested by cell lysis (pfu), human donor one [1] [pfu ×10^3]	Phage harvested by cell lysis (pfu), human donor two [1] [pfu ×10^3]	Phage titre (pfu), mouse DCs (mouse dendritic cells) [pfu ×10^3]	Percentages of cells transfected (ranking) [2]	Phage titre (pfu), plastic [3] [pfu ×10^3]	Transfection efficiency (luciferase activity per mg protein) relative to peptide 6 (N2a (Neuro2A) cells)	Transfection efficiency (luciferase activity per mg protein) relative to peptide 6 (HAEo- cells)	Percent positive for EGFP ([2]; combined with Lipofectin) [%]
APSNSTA (Synthetic peptide binding to dendritic cells)	6480	1920	460	480	highest percentages of cells transfected	480	less than half that value	one and a half times that using peptide 6	–
SHVKLNS (Synthetic peptide binding to dendritic cells)	7280	2620	1160	2120	highest percentages of cells transfected	720	equal to those seen with peptide 6	approximately double that seen with peptide 6	6
